# Measured values reported in ChEMBL document CHEMBL1201862, “PubChem BioAssay data set” (2004).
# Activity calls are given as the source filed them.
# Columns and labels:
# [1] = target: T1, Protein skinhead-1 (Caenorhabditis elegans, UniProt P34707); assay type: functional
# T1 sequence (P34707 whole entry): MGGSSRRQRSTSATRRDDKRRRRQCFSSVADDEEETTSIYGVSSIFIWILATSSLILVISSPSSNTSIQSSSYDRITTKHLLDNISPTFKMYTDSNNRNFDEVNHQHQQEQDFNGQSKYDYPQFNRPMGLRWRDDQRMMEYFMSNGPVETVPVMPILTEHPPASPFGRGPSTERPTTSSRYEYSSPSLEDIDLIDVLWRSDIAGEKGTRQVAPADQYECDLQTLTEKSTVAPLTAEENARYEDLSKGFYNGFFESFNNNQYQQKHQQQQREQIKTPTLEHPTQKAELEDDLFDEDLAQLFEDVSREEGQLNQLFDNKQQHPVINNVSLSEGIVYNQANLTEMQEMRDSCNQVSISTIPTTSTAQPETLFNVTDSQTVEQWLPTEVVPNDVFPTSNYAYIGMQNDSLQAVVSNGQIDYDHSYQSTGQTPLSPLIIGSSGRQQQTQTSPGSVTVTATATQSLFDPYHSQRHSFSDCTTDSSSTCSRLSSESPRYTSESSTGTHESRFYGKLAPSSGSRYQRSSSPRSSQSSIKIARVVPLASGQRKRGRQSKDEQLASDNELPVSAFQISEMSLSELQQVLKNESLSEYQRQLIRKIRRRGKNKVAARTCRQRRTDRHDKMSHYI
# [2] = test system: INS1; test: INS-1E survival protection against cytokine death – cell-based, luminescence, retest, dose response (AID 449756); assay type: functional; details: Rattus norvegicus;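 note: cell death triggered by IL-1 beta plus TNF-alpha plus IFN-gamma mixture; protective hits raise ATP signal compared with cytokine alone wells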
# [3] = target: Paired box protein Pax-8 (Homo sapiens, UniProt Q06710); test: PAX8 transcriptional activity inhibition in RMG-I – RMG-I cells, luciferase, cherry-pick, dose response (AID 687027); assay type: functional, cell-based;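 note: luciferase reporter driven by Pax8 target thyroperoxidase promoter measured by SteadyGlo luminescence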
# Chain of Paired box protein Pax-8 (Q06710 whole entry, the tested form may be a part): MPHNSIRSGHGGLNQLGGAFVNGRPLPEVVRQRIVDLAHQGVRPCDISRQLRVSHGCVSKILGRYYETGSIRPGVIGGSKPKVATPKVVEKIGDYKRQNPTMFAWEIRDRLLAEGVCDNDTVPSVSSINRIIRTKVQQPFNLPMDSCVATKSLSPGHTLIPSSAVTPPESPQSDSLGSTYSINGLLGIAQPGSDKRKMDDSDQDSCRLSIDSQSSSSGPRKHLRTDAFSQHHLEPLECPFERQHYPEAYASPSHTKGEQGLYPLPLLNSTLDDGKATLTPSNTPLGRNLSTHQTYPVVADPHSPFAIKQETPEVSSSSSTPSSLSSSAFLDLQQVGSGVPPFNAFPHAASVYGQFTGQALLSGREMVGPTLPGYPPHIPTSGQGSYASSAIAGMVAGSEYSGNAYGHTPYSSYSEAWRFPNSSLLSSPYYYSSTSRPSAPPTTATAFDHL
# [4] = target: T2, RNA-binding protein pos-1 (Caenorhabditis elegans, UniProt G5EF15); test: disruptors of C. elegans POS-1 RNA interaction – biochemical, fluorescence polarization, dose response (AID 1964);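 note: purified POS-1 fused to maltose binding protein made in E. coli; potency of compounds blocking POS-1 binding to fluorescent RNA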
# T2 sequence (G5EF15 whole entry): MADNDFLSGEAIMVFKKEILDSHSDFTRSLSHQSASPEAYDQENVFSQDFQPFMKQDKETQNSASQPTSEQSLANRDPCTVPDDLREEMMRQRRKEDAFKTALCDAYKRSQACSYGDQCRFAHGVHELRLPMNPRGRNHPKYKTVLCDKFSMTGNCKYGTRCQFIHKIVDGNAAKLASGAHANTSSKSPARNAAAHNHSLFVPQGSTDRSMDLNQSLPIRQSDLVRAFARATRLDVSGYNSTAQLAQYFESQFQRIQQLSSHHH
# [5] = target: T3, Zinc finger protein mex-5 (Caenorhabditis elegans, UniProt Q9XUB2); test: potency of MEX-5 RNA-binding blockers – biochemical, C. elegans, fluorescence polarization, dose response (AID 1960)
# T3 sequence (Q9XUB2 whole entry): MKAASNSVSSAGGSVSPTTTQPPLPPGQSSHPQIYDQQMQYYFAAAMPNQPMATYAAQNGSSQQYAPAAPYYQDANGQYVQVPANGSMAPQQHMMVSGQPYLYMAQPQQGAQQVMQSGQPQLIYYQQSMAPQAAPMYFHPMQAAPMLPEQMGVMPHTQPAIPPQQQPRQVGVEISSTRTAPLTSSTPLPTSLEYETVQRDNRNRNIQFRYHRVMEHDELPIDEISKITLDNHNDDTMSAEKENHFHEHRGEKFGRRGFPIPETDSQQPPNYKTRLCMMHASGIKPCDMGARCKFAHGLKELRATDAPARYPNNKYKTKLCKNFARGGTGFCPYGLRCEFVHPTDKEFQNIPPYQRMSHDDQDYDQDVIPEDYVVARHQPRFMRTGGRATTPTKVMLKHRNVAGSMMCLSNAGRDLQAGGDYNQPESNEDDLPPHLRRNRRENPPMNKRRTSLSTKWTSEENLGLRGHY
# [6] = target: FAD-linked sulfhydryl oxidase ALR (Homo sapiens, UniProt P55789); test: ALR-catalysed DTT oxidation blockers – biochemical, H2O2 detection, luminescence, cherry-pick, dose response (AID 493248)
# Chain of FAD-linked sulfhydryl oxidase ALR (P55789 whole entry): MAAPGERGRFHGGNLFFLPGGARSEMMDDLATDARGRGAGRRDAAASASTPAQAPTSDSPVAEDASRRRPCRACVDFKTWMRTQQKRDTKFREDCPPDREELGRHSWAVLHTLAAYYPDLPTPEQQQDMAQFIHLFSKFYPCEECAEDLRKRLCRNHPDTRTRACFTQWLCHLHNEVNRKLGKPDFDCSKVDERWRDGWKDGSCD
# [7] = NIH3T3 cell viability loss – ATP luminescence, mouse fibroblasts, counter-screen, dose response (AID 2010); assay type: functional, cell-based;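 note: cells exposed to compound for about 90 hours before reading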
# [8] = Trypanosoma cruzi growth suppression in host cells – NIH3T3 host cells, beta-gal luminescence, confirmation (AID 2044); assay type: functional, cell-based;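 note: intracellular parasites grown in NIH/3T3 mouse fibroblasts as host cells; luminescent beta-galactosidase reporter signal from transgenic T. cruzi replicating inside host cells; inhibitors lower the luminescence signal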
# [9] = test system: H4; test: Luminescence Cell-Based Dose Response HTS to Identify Activators of 5'UTR Stem-Loop Driven Prion Protein mRNA Translation in H4 Neuroglioblastoma Cells. [Related pubchem assays: 1829 (Project Summary), 1814 (Primary HTS)]; assay type: functional; details: Homo sapiens
# [10] = Luminescence Cell-Based Dose Response HTS to Identify Activators of Luciferase Translation or Activity in H4 […] Cells. [Related pubchem assays: 1829 (Project Summary), 1814 (Primary HTS)]; assay type: functional
# [11] = target: T4, Rac GTPase-activating protein 1 (Homo sapiens, UniProt Q9H0H5); test: blockers of MgcRacGAP-driven Rac1 GTP hydrolysis – biochemical, ADP Hunter fluorescence, primary and confirmatory, confirmation (AID 624330); assay type: functional
# T4 sequence (Q9H0H5 whole entry): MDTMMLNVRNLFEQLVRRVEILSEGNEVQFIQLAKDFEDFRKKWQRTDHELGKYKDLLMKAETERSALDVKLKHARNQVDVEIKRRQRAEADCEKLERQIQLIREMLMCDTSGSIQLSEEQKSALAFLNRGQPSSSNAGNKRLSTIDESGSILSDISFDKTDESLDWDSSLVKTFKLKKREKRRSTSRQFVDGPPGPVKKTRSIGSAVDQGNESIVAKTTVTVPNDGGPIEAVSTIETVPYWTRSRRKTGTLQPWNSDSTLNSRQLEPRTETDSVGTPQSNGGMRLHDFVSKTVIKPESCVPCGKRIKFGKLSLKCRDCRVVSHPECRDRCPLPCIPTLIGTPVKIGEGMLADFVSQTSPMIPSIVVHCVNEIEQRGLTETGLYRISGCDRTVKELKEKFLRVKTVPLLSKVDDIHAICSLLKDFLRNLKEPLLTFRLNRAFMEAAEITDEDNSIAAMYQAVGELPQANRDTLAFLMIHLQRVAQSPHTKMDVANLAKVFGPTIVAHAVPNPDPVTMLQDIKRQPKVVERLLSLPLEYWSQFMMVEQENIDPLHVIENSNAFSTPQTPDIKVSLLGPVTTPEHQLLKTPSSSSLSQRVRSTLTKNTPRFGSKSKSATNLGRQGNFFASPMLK
structure (smiles),measurement,setting,value
COc1ccc(-c2nn(CC(=O)Nc3ccc(Cl)c(Cl)c3)c(=O)c3ccccc23)cc1,IC50,[1],> 100 µM (inactive)
CCOC(=O)N1CCN(S(=O)(=O)c2ccc(C(=O)NNc3nc4ccc(Cl)cc4s3)cc2)CC1,AC50,[2],3.39 µM (active)
C[C@@H]1CCCCO[C@@H](CN(C)C(=O)Cc2ccccc2)[C@@H](C)CN([C@@H](C)CO)C(=O)c2cc(NC(=O)Nc3ccc(C(F)(F)F)cc3)ccc2O1,AC50,[3],4.87 µM (active)
O=C(NCc1ccccn1)C1Nc2ccc(OC(F)(F)F)cc2C2C=CCC12 (stereo unspecified),EC50,[4],> 300 µM (not active)
same,EC50,[5],> 300 µM (not active)
C[C@@H]1CN([C@H](C)CO)C(=O)c2cc(NC(=O)Nc3ccccc3)ccc2O[C@@H](C)CCCCO[C@H]1CN(C)Cc1ccc(Cl)c(Cl)c1,AC50,[3],7.42 µM (active)
COc1ccc(N2C(=O)CSC2c2ccccc2[N+](=O)[O-])cc1 (stereo unspecified),AC50,[6],4.55 µM (active)
CN1c2ccc(-c3ccc(C#N)cc3)cc2[C@@H]2[C@@H](CCN2C(=O)NC2CCCCC2)[C@@H]1CO,AC50,[3],19.9 µM (active)
CCN(CC)S(=O)(=O)c1ccc(/N=N/c2c(C)[nH]n(C(N)=S)c2=O)cc1,AC50,[6],0.782 µM (active)
O=C(N/N=C\c1ccc(-c2ccc(Cl)c(Cl)c2)o1)C(=O)N1CCCC1,EC50,[4],49.5 µM (active)
same,EC50,[5],29.6 µM (active)
Fc1ccc(Nc2c3c(nc4ccccc24)CCC3)cc1,AC50,[6],6.31 µM (active)
same,EC50,[7],> 60 µM (inconclusive)
same,EC50,[8],2.48 µM (active)
Cc1cc(C)c(OCCOCCN2CCNCC2)c(C)c1,IC50,[1],> 100 µM (inactive)
O=C(Nc1nc(-c2ccccc2)ns1)c1cccs1,AC50,[6],81 µM (active)
same,EC50,[9],> 120 µM (not active)
same,EC50,[10],1.32 µM (active)
O=C(NC1CCN(C(=S)Nc2ccc(Cl)cc2)CC1)c1ccco1,IC50,[1],> 100 µM (inactive)
O=[N+]([O-])c1cccc(-c2cn3nc(-c4ccccc4)c(-c4ccccc4)nc3n2)c1,AC50,[2],11 µM (active)
same,EC50,[4],> 300 µM (not active)
same,EC50,[5],99 µM (active)
COC(=O)c1c(-c2ccccc2)noc1-c1ccccc1,IC50,[1],58.6 µM (inactive)
CCOCCCNc1nc2nc3ccc(C)cn3c(=O)c2cc1C(=O)NCC1CCCO1 (stereo unspecified),EC50,[4],> 300 µM (not active)
same,EC50,[5],> 300 µM (not active)
Cc1cc(C=C2C(=O)c3ccccc3C2=O)c(C)n1-c1ccc(Cl)cc1,EC50,[4],> 300 µM (not active)
same,EC50,[5],> 300 µM (not active)
Cc1ccc(S(=O)(=O)N2CC=C(c3c(C)n(C)c4ccccc34)CC2)cc1,IC50,[1],> 100 µM (inactive)
CCC(=O)Nc1cc(C)c(NC(=O)CCc2ccccc2)cn1,EC50,[4],24 µM (active)
same,EC50,[5],26 µM (inconclusive)
COc1ccc2c(-c3ccccc3)cc(SCC(N)=O)nc2c1,EC50,[4],> 300 µM (not active)
same,EC50,[5],> 300 µM (not active)
COc1cc(/C=N/NC(=O)c2cccc(N3CCCC3=O)c2)ccc1O,AC50,[6],2.71 µM (active)
same,IC50,[11],30.9 µM (active)
CC1CCC2C(C1)Nc1c(C(=O)O)cccc1C2(C)C (stereo unspecified),AC50,[6],4.55 µM (active)
COc1cc(/C=C/c2cc(C(=O)O)c3ccccc3n2)cc(OC)c1O,AC50,[6],0.141 µM (active)
CCCCn1ccnc1C(=O)c1cccc(S(=O)(=O)N2c3ccccc3CC2C)c1 (stereo unspecified),IC50,[1],> 100 µM (inactive)
CCCS(=O)(=O)NCc1ccc2c(c1)cc(C)n2C,IC50,[1],> 100 µM (inactive)
CC(C)(C)OC(=O)NCCCC1=CC2=CC(=O)C(C)(OC(=O)C3CCCC3)C(=O)C2=CO1 (stereo unspecified),EC50,[4],18.8 µM (active)
same,EC50,[5],18.7 µM (active)
O=C(Cn1cc(C=C2C(=O)NC(=O)NC2=O)c2ccccc21)NCC1CCCO1 (stereo unspecified),EC50,[4],16.7 µM (active)
same,EC50,[5],10.1 µM (active)
CN1C(=O)N(c2ccccc2)C(Nc2nncs2)C1(C)C (stereo unspecified),IC50,[1],> 100 µM (inactive)
Cc1cccn2c(=O)c3cc(C(=O)NCc4ccco4)c(=N)n(C(C)C)c3nc12,EC50,[4],40.5 µM (active)
same,EC50,[5],45.5 µM (active)
ClCc1nc2ccccc2n1Cc1ccccc1,EC50,[4],2.24 µM (inconclusive)
same,EC50,[5],3.93 µM (inconclusive)
O=[N+]([O-])c1cc2c(cc1Br)-c1ccccc1C2,IC50,[1],> 100 µM (inactive)
Cc1ccc(CSCC(=O)N2CCOCC2)cc1,IC50,[1],> 100 µM (inactive)
Cc1cc(C)cc(N2C(=O)CSC2c2ccccn2)c1 (stereo unspecified),AC50,[6],0.731 µM (active)
Brc1ccc(-[n+]2c(-c3ccccc3)cc(-c3ccccc3)cc2-c2ccccc2)cc1.[O-][Cl+3]([O-])([O-])[O-],AC50,[2],2.04 µM (active)
CCN(CC)c1ccc(CN2CCC(C(=O)NCc3ccc(C)cc3)CC2)cc1,AC50,[6],5.7 µM (active)
Cc1cc(NS(=O)(=O)c2ccc(NC(=O)c3cc(-c4cccnc4)nc4ccc(Cl)cc34)cc2)no1,IC50,[1],> 100 µM (inactive)
Cc1cc(S(=O)(=O)Nc2ccc(N(C)C)cc2)c(C)s1,AC50,[6],0.704 µM (active)
O=C(Nc1c(C(=O)O)[nH]c2ccccc12)NC1CCCCC1,AC50,[6],1.26 µM (active)
COc1ccc(C2(c3ccc(OC)cc3)NC(=O)N(CC(=O)NC3CCS(=O)(=O)C3)C2=O)cc1 (stereo unspecified),IC50,[1],> 100 µM (inactive)
